Among the test systems are OVCAR-8 ovarian; SF-268 CNS; IGROV1 ovarian; HCC-2998 colon; K-562 leukemia; EKVX NSCLC; NCI-H460 lung; OVCAR-3 ovarian; UACC-62 melanoma; A498 renal.
Common to all, as to test: NCI anticancer screen, dose series, 48 h

From PubChem BioAssay (NCI) come the findings set out here.

“And” between values parts separate entries of the source, which are not always exact repeats. Equal values may be shown once.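 Method: 48-hour compound exposure of cells in 96-well plates, five concentrations, linear interpolation of endpoints. Here, GI50 denotes the concentration required for 50% inhibition of growth. TGI: concentration producing complete growth inhibition.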

Regarding `CCCCCCCCCOC(=S)NC`, the TGI in the experiment on OVCAR-8 ovarian was 44.9 µM; in the experiment with SF-268 CNS, 38.5 µM; with IGROV1 ovarian, 63.7 µM; with HCC-2998 colon, 35.3 µM; in the experiment on K-562 leukemia, 51.1 µM; with EKVX NSCLC, 51.6 µM. In addition, the TGI amounted to 36.3 µM in the experiment with NCI-H460 lung, 36.1 µM in the experiment on OVCAR-3 ovarian, 53.9 µM with UACC-62 melanoma and 48.8 µM in the experiment with A498 renal.
As for `N=c1ccn2c(n1)OC1C(OP(=O)(O)O)C(CO)OC12` (configuration not stated), the TGI with OVCAR-8 ovarian is greater than 100 µM; in the experiment on SF-268 CNS, greater than 100 µM; in the experiment on IGROV1 ovarian it was greater than 100 µM; with HCC-2998 colon it was 96.4 µM; in the experiment on K-562 leukemia it was greater than 100 µM; in the experiment on EKVX NSCLC, greater than 100 µM. Moreover, the TGI in the experiment with NCI-H460 lung is greater than 39.2 µM; in the experiment on OVCAR-3 ovarian, greater than 100 µM; in the experiment on UACC-62 melanoma, greater than 100 µM; in the experiment with A498 renal, greater than 100 µM.
Regarding `CCCC(OCC)(OCC)OCC`, the TGI in the experiment with OVCAR-8 ovarian, in the experiment with SF-268 CNS, with IGROV1 ovarian, in the experiment with HCC-2998 colon, with K-562 leukemia and in the experiment with EKVX NSCLC was greater than 100 µM throughout. Besides, the TGI in the experiment with NCI-H460 lung, with OVCAR-3 ovarian, in the experiment on UACC-62 melanoma and in the experiment on A498 renal was greater than 100 µM throughout.
In the case of `C/C(CC(=O)CCCC(=O)Nc1ccc(Cl)cc1Cl)=N/NC(=O)CC#N`, the TGI in the experiment on OVCAR-8 ovarian, with SF-268 CNS, in the experiment with IGROV1 ovarian, with HCC-2998 colon, with K-562 leukemia and in the experiment on EKVX NSCLC was greater than 100 µM throughout. The TGI with NCI-H460 lung, with OVCAR-3 ovarian, in the experiment with UACC-62 melanoma and with A498 renal was greater than 100 µM each time.
Turning to `COc1cc2c(c(OC)c1OC)-c1ccc([O-])c(=O)cc1[C@@H](NC(C)=O)CC2.COc1cc2c(c(OC)c1OC)-c1ccc([O-])c(=O)cc1[C@@H](NC(C)=O)CC2.[Cu+2]`, the GI50 is 3.77 µM with OVCAR-8 ovarian; 3.89 µM in the experiment on SF-268 CNS; 5.59 µM with IGROV1 ovarian; 2.58 µM in the experiment with HCC-2998 colon; 2.48 µM in the experiment with K-562 leukemia; 4.64 µM in the experiment on EKVX NSCLC. For the same compound, the GI50 is 3.29 µM in the experiment on NCI-H460 lung, 2.16 µM in the experiment with OVCAR-3 ovarian, 1.86 µM in the experiment with UACC-62 melanoma and 2.41 µM in the experiment on A498 renal. In addition, the TGI in the experiment on OVCAR-8 ovarian is 34.5 µM; in the experiment on SF-268 CNS, 22.7 µM; with IGROV1 ovarian, 47.1 µM; with HCC-2998 colon it was 7.2 µM; in the experiment with K-562 leukemia, greater than 100 µM; in the experiment with EKVX NSCLC, greater than 100 µM. The TGI worked out at 15.7 µM in the experiment with NCI-H460 lung, 5.19 µM in the experiment with OVCAR-3 ovarian, 11.4 µM with UACC-62 melanoma and 8.53 µM in the experiment on A498 renal.
As for `Nc1nc(N)c2nc(CNc3ccc(C(=O)CC(CCC(=O)O)C(=O)O)cc3)cnc2n1` (configuration not stated), the GI50 in the experiment on OVCAR-8 ovarian is 0.166 µM; in the experiment on SF-268 CNS, 0.197 µM; in the experiment with IGROV1 ovarian it was 0.465 µM; in the experiment on HCC-2998 colon it was 0.179 µM; in the experiment on K-562 leukemia, 0.0406 µM; in the experiment on EKVX NSCLC, 0.517 µM. For the same compound, the GI50 in the experiment with NCI-H460 lung was 0.127 µM; in the experiment on OVCAR-3 ovarian, greater than 100 µM; in the experiment on UACC-62 melanoma, 0.374 µM; with A498 renal, 3.15 µM. In addition, the TGI in the experiment with OVCAR-8 ovarian was greater than 100 µM; in the experiment on SF-268 CNS, greater than 100 µM; in the experiment on IGROV1 ovarian, greater than 100 µM; with HCC-2998 colon, greater than 96.2 µM; in the experiment with K-562 leukemia it was greater than 100 µM; in the experiment on EKVX NSCLC, greater than 100 µM. Besides, the TGI with NCI-H460 lung, in the experiment on OVCAR-3 ovarian, with UACC-62 melanoma and with A498 renal was greater than 100 µM throughout.
With `Cc1cc(N(CCOS(C)(=O)=O)CCOS(C)(=O)=O)ccc1C=Nc1ccc(-c2csc(-c3ccccc3)n2)c(Cl)c1`, the TGI is greater than 84.2 µM in the experiment with OVCAR-8 ovarian; 54.8 µM in the experiment on SF-268 CNS; 32.2 µM in the experiment with IGROV1 ovarian; 15.8 µM in the experiment with HCC-2998 colon; 51 µM with K-562 leukemia; 29.1 µM in the experiment with EKVX NSCLC. For the same compound, the TGI in the experiment on NCI-H460 lung came out at 7.01 µM; with OVCAR-3 ovarian, 40.9 µM; with UACC-62 melanoma it was 20.6 µM; in the experiment on A498 renal it was 4.67 µM.
In the case of `CC(=O)[O-].CC(=O)[O-].[Mn+2].c1ccc(/C(=N\Nc2ccccn2)c2ccccn2)cc1`, the TGI in the experiment on OVCAR-8 ovarian was 12.3 µM; with SF-268 CNS, 13.5 µM; with IGROV1 ovarian, 3.59 µM; with HCC-2998 colon, 14.8 µM; in the experiment on EKVX NSCLC, 19.9 µM; with NCI-H460 lung it was 1.14 µM. For the same compound, the TGI in the experiment with OVCAR-3 ovarian came to 0.00913 µM; with UACC-62 melanoma, 1.13 µM; with A498 renal, 30.6 µM. Also, the GI50 was 0.0271 µM and 0.141 µM in the experiment with IGROV1 ovarian; 0.00305 µM in the experiment with K-562 leukemia; 0.0187 µM in the experiment on EKVX NSCLC.
For the compound `CN1CCN(C(=O)c2ccc(NC(=O)Nc3ccc(N(C)c4ccnc(Nc5ccc(CS(C)(=O)=O)cc5)n4)cc3)cc2)CC1`, the GI50 in the experiment with OVCAR-8 ovarian was 7.22 µM; in the experiment on SF-268 CNS, 9.95 µM; with IGROV1 ovarian, greater than 16.4 µM; in the experiment with HCC-2998 colon it was greater than 25 µM; with K-562 leukemia it was 12.6 µM; with EKVX NSCLC, greater than 25 µM. In addition, the GI50 is 11.8 µM in the experiment with NCI-H460 lung, 7.44 µM in the experiment on OVCAR-3 ovarian, 9.99 µM with UACC-62 melanoma and greater than 25 µM in the experiment with A498 renal. Further, the TGI in the experiment on OVCAR-8 ovarian is greater than 24 µM; in the experiment on SF-268 CNS, greater than 25 µM; with IGROV1 ovarian, greater than 25 µM; in the experiment with HCC-2998 colon, greater than 25 µM; in the experiment with K-562 leukemia it was greater than 25 µM; in the experiment with EKVX NSCLC, greater than 25 µM. The TGI with NCI-H460 lung was greater than 25 µM; with OVCAR-3 ovarian it was greater than 19.4 µM; in the experiment with UACC-62 melanoma, greater than 25 µM; in the experiment with A498 renal it was greater than 25 µM.
For the compound `NCCCNc1ccc2c(c1)[n+]([O-])c1ccccc1[n+]2[O-]`, the TGI in the experiment on OVCAR-8 ovarian is greater than 100 µM; with SF-268 CNS, greater than 100 µM; in the experiment with IGROV1 ovarian it was 41.5 µM; with HCC-2998 colon it was greater than 100 µM; in the experiment on K-562 leukemia it was greater than 100 µM; with EKVX NSCLC it was greater than 100 µM. The TGI was found to be 53.6 µM in the experiment on NCI-H460 lung, 50.5 µM in the experiment on OVCAR-3 ovarian, 49.2 µM with UACC-62 melanoma and 47.8 µM in the experiment with A498 renal.
